Where two headings read alike, the source gives them in different places. Ends that are not written are not given here.
Target: T1, recombinant HLA-DR401 (HLA-DRA1*01:01, HLA-DRB1*04:01) (Homo sapiens, UniProt P01903+P01911, A100K/A169T/F76Y/I96L/K127E/L162R/M171V/N62H/P40V/Q125Y/R42H/S133A/S149N/S66Y/V115G/V209L/W38E)
T1 construct: poly-histidine (C); made in house; host or cells: High Five (Hi5) insect cells, baculovirus (pAcGP67a)
Assay: biochemical
Assay type: binding

[1] = estimated from two-point fluorescence polarization competition assay binding plots, HLA-DR401, N = 3 technical replicates per condition, read-out: IC50 (estimated)
[2] = fluorescence polarization peptide competition, HLA-DR401, sheet Fig7, read-out: Measured IC50

With AAWDPDKTVYGWEEG the IC50 was 43.9 nM.

In the case of AAWDPERTCRAWEEG, the IC50 is reported as 31.8 nM.

Work on AAWERENDMLGWEEG yielded an IC50 of 15.2 nM.

In the case of AAWESSTDLVGWEEG, the IC50 is reported as 11.9 nM.

AAWHGEGSQIGWEEG gave an IC50 of 17.5 nM.

With AAWHNDPACKGWEEG the IC50 was 40.7 nM.

With AAWVPCGDMVSWEEG the IC50 was 26.5 nM.

With AAWVRVVPMRAWEEG the IC50 [1] was < 10 nM.

In the case of AAWVVEHSEVGWEEG, the IC50 is reported as 19.4 nM.

AAYSVEPCYRMWEEG gave an IC50 [1] of 37 nM.

For AGEYRNDPNNLAYNG, the IC50 was 26.5 nM.

In the case of AGGFKGEQGPKGYNG, the IC50 (SuppFig6C, fluorescence polarization competition, HLA-DR401, read-out: Measured IC50) is reported as 134 nM.

In the case of AIGFKGEQGPKGGVG, the IC50 (read-out: Measured IC50) is reported as 23300 nM.

With ASDSSYRNECPMAEKEDTQM the IC50 [2] was 47.4 nM.

ESSISDKNYWKTVSNAFSVI gave an IC50 [2] of 24.7 nM.

EVKYCTFSKDRSKPIPGMTL was tested, and the IC50 [2] was > 50000 nM and the IC50 (read-out: Measured IC50) was > 50000 nM.

FVGNIAEDLCLDITKLSARG was tested, and the IC50 [2] was 86 nM.

With LLPVKQSVVPLAKGTLITHC the IC50 [2] was 307 nM.

In the case of MKRRPVWTDINPKAVTNDEL, the IC50 [2] is reported as 21 nM.

With PIPVIFHRIATELRKTNDIN the IC50 [2] was 698 nM.

Sequence PIPVIFHRIATELSKTNDIN has an IC50 [2] of 42.1 nM.

With RKDLIVMLMDTDVNKQDKQK the IC50 [2] was 3170 nM.

VSSFQDILLRMSKMQ was tested, and the IC50 (HLA-DR401, fluorescence polarization competition, Fig3B, read-out: Measured IC50) was > 50000 nM and the IC50 (read-out: Measured IC50) was > 50000 nM.

Work on VYGWATLVSERSKNGMQRIL yielded an IC50 [2] of 245 nM.

Sequence VYGWATLVSERSNNGMQRIL has an IC50 [2] of 94 nM.

For WRAPSYILSPELTQRLFSAA, the IC50 [2] was 248 nM.

With YSIEVLLVLDDSVVRFHGKE the IC50 [2] was > 50000 nM and the IC50 (read-out: Measured IC50) was > 50000 nM.

With YVGDMLAWLHQSTASEKEHL the IC50 [2] was 406 nM.

YWKQWLSLRNPILVF was tested, and the IC50 (fluorescence polarization competition, […], competitor 20 µM to 1.28 nM in five-fold dilutions, n = 3 replicates, read-out: Measured IC50) was 2510 nM.
